Experimental data published in patent publication US11691984B2, “Compounds and methods for DCAF-mediated protein degradation” (The Scripps Research Institute, priority 2018, dated 2023).

Assays:
ACAT1 = target: T1, ACAT1 (Homo sapiens, UniProt P24752); experiment: Proteome-wide SILAC MS protein abundance in HEK293T cells: ACAT1; format: cell-based; conditions: 24 hours
T1 construct: endogenous in cells; host or cells: HEK293T
T1 sequence (P24752 34-427): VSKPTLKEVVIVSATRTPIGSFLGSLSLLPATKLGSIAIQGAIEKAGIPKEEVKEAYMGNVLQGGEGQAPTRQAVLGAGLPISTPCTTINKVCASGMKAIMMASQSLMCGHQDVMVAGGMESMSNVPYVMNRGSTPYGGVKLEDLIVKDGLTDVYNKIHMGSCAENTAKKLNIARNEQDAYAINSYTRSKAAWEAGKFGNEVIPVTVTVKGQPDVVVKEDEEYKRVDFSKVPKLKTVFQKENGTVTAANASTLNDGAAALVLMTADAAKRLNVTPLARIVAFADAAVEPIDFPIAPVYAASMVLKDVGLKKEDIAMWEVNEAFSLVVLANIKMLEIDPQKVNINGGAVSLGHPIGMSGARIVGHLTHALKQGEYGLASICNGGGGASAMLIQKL
Description: (§1) HEK293T light and heavy SILAC cells were treated with DMSO and KB02-JQ1 (20 μM) or KB02-SLF (2 μM) for 24 hours, respectively. Light and heavy cells were collected and lysed in 1% NP-40 lysis buffer with complete protease inhibitor cocktail. Cells were vortexed and sonicated for 5 pulses (40%, 4). The supernatant was collected after centrifugation at 16,000 g for 10 min at 4° C. Protein concentration was determined by DC assay. 50 μg proteome from light and heavy samples were mixed, followed by methanol/chloroform precipitation. […] Next, the ratio of the peak areas under the light and heavy signals (signal-to-noise ratio>2.5) was calculated. […] In addition, peptides detected as ‘singletons,’ where only the heavy ion of a peptide pair was identified, but that cleared all other filtering parameters, were given a default assigned ratio of ‘20,’ which is defined as any measured ratio that is ≥20 and is the maximum ratio reported here.” The median SILAC ratios from quantified peptides were used as measures of protein abundance. The following quality filters were further applied to generate the plot: (1) proteins must have at least two quantified peptides; (2) proteins must be present in both replicates; (3) for each protein, the standard deviation of measured ratios of peptides must be <1.0.

BRD4 = target: T2, BRD4 (Homo sapiens, UniProt O60885); experiment: Proteome-wide SILAC MS protein abundance in HEK293T cells: BRD4; format: cell-based; conditions: 24 hours
T2 construct: degradation of endogenous BRD4 in HEK293T cells; endogenous in cells; host or cells: HEK293T (A10, A16); HEK293 DCAF16+/+ and DCAF16-/- clones (A11)
Description: as §1

[1] = Cell viability assay (Cell Titer Glo); format: cell-based, human; conditions: human, HEK293T cells, 24 hours, read-out: cytotoxicity IC50
Description: HEK293T cells were seeded in 96-well clear bottom white plate (Corning) at 3×10^4 cells per well in 100 μL of DMEM medium and grown for 24 h. The cells were treated with 0.625, 1.25, 2.5, 5, 10, 20 and 40 μM of KB02-SLF or KB02-JQ1 (DMSO stock, final DMEM concentration is 0.1% (v/v)) in 100 μL of DMEM medium for 24 h. 50 μL of Cell Titer Glo reagent (Promega) was added to each well and incubate for 10 min at room temperature. The luminescence was read on CLARIOstar (BMG LAB TECH).

SMILES: Cc1sc2c(c1C)C(c1ccc(Cl)cc1)=N[C@@H](CC(=O)NCCOCCOCCNC(=O)COc1ccc3c(c1)CCCN3C(=O)CCl)c1nnc(C)n1-2 [KB02-JQ1, (S)-2-((1-(2-chloroacetyl)-1,2,3,4-tetrahydroquinolin-6-yl)oxy)-N-(2-(2-(2-(2-(4-(4-chlorophenyl)-2,3,9-trimethyl-6H-thieno[3,2-f][1,2,4]triazolo[4,3-a][1,4]diazepin-6-yl)acetamido)ethoxy)ethoxy)ethyl)acetamide]
- ACAT1 abundance (MS-based proteomics) (ACAT1; KB02-JQ1 20 μM): substantially decreased abundance
- BRD4 abundance (MS-based proteomics) (BRD4; KB02-JQ1 20 μM): selective degradation of BRD4
- IC50 at 24 h [1]: > 50 µM

SMILES: CCC(C)(C)C(=O)C(=O)N1CCCC[C@H]1C(=O)O[C@H](CCc1ccc(OC)c(OC)c1)c1cccc(NC(=O)CCOCCOCCNC(=O)COc2ccc3c(c2)CCCN3C(=O)CCl)c1 [KB02-SLF, (R)-1-(3-(3-(2-(2-(2-((1-(2-chloroacetyl)-1,2,3,4-tetrahydroquinolin-6-yl)oxy)acetamido)ethoxy)ethoxy)propanamido)phenyl)-3-(3,4-dimethoxyphenyl)propyl (S)-1-(3,3-dimethyl-2-oxopentanoyl)piperidine-2-carboxylate]
- ACAT1 abundance (MS-based proteomics) (ACAT1; KB02-SLF 2 μM): reductions in ACAT1
- BRD4 abundance (MS-based proteomics) (BRD4; KB02-SLF 2 μM): not BRD4
- IC50 at 24 h [1]: 14 ± 1.1 µM
